Assay results as given in patent US20250213558A1, “T-TYPE CALCIUM CHANNEL MODULATORS COMPRISING A PIPERAZINE OR 1,4-DIAZEPANE CORE AND METHODS OF USE THEREOF” (Praxis Precision Medicines, Inc., priority 2022, published 2025).
Where two headings read alike, the source gives them in different places.

Target: T1, Human Cav3.1 calcium channel (Homo sapiens, UniProt O43497)
T1 construct: expressed in transfected cells; host or cells: HEK-293 natClytin/TASK1+Cav3.1 cell line
Assay: Human Cav3.1 calcium channel patch clamp assay (SyncroPatch 384PE; single point and IC50, voltage dependent block)
Assay type: cell-based
Conditions: for % Inhibition (Single Point Data): patch clamp
Protocol: Certain compounds (as indicated) were tested for Human Cav3.1 calcium channel activity via a patch clamp assay as disclosed herein.
Pulse generation and data collection were performed with PatchController384 V1.3.0 and DataController384 V1.2.1 (Nanion Technologies). Offline analysis was performed using Excel and Graphpad Prism (V 8.4.2) with complete data files uploaded to Dotmatics. The access resistance and apparent membrane capacitance were estimated using built-in protocols. Current was recorded in whole cell configuration from a population of cells. The cells were lifted, triturated, and resuspended at 800,000 cells/ml. The cells were allowed to recover in the cell hotel prior to experimentation. Currents were recorded at room temperature. The external solution contained the following (in mM): NaCl 80, NMDG 60, KCl 4, MgCl2 1, CaCl2 6, glucose 5 and HEPES 10 (pH=7.4, Osmolarity˜300 mOsm). The extracellular solution was used as the wash, reference and compound delivery solution.
The compound plate was created at 2× concentrated in the extracellular solution. The compound was diluted to 1:2 when added to the recording well. The amount of DMSO in the extracellular solution was held constant at the level used for the highest tested concentration. For the voltage clamp experiments on Cav3.1, data were sampled at 10 KHz. After establishment of the seal and the passage in the whole cell configuration, the cells were held at −120 mV. Cav3.1 current was evoked using a 100 ms step to −20 mV (to measure resting state block), followed by a 1600 ms step to −65 mV and a second 100 ms step to −20 mV (to measure voltage dependent block). The voltage protocol was applied every 15 seconds in the absence and in the presence of the compounds under investigation. […] Current amplitude (pA) was measured in the peak 1 and 2. The average of last 3 sweeps of each liquid period (vehicle, compound under investigation, full block) was calculated. Nickel-sensitive current was used to calculate the % of inhibition in the presence of the compound under investigation.

[1] = Testing Conc 1.25, HEK-293 natClytin/TASK1+Cav3.1 cell line
[2] = voltage dependent block (VDB), HEK-293 natClytin/TASK1+Cav3.1 cell line, read-out: Cav3.1 IC50
[3] = Testing Conc 1, HEK-293 natClytin/TASK1+Cav3.1 cell line

T1 sequence (O43497 whole entry): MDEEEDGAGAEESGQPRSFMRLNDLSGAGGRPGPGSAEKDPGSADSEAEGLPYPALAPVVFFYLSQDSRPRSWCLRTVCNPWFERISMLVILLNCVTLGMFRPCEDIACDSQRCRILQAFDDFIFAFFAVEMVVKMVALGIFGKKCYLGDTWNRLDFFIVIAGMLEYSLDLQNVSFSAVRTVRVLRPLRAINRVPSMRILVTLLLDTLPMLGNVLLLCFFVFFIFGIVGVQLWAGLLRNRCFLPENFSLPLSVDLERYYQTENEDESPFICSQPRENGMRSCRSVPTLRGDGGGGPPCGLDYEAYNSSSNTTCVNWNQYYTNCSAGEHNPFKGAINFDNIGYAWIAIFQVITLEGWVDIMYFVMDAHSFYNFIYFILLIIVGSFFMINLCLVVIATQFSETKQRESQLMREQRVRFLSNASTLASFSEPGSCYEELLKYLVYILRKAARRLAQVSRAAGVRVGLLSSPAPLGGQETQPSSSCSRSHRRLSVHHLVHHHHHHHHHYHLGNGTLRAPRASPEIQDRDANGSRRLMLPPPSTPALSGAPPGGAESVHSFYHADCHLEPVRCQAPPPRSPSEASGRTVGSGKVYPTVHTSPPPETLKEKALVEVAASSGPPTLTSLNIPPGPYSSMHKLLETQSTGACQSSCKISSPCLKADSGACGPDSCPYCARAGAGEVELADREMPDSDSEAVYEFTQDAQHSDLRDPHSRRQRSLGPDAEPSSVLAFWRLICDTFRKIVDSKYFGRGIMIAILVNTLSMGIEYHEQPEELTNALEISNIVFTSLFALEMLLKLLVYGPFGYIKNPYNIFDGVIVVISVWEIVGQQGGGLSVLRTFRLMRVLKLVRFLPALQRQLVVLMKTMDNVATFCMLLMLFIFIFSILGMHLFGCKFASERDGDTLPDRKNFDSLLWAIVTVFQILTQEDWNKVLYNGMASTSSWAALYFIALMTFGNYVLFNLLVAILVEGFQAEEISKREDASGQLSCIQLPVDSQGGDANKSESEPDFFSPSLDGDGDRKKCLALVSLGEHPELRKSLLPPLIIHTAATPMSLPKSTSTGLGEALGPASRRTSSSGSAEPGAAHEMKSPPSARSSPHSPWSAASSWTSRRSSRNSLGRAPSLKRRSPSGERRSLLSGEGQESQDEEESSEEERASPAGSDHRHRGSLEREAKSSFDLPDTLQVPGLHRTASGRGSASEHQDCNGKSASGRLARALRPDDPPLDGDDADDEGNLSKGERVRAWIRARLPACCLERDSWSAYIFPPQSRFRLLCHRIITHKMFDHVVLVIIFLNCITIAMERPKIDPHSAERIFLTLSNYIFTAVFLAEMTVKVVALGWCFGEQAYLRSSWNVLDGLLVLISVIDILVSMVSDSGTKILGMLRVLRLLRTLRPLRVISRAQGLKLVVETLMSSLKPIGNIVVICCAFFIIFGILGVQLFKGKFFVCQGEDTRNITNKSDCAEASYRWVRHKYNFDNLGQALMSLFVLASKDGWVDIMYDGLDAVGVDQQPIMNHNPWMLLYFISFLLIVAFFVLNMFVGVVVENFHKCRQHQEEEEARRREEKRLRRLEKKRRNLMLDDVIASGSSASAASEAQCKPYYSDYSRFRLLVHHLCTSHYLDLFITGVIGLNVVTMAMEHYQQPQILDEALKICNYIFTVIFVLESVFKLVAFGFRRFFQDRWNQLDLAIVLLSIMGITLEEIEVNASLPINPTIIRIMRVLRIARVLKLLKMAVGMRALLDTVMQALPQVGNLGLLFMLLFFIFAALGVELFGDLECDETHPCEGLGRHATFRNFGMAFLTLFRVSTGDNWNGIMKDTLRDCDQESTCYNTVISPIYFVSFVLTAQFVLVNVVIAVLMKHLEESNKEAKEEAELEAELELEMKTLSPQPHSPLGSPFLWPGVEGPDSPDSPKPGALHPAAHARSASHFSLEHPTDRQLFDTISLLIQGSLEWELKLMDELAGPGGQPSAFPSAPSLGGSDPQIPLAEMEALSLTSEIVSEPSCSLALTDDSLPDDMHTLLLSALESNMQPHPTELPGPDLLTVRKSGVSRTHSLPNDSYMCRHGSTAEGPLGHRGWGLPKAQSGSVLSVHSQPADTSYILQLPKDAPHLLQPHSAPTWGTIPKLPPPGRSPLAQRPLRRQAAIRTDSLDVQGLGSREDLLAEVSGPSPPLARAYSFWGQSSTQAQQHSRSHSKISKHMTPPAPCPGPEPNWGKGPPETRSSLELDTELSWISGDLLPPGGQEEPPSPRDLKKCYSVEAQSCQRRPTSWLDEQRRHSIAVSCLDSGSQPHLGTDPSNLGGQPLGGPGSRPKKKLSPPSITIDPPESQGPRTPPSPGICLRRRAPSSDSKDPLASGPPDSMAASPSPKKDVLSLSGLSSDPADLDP

Cc1cc(Cl)cc(NC(=O)CN2CC3CC(C2)N3CC(=O)NC2(C(F)(F)F)CC2)c1 [Compound 336]
% Inhibition (Single Point Data) [1]: 87.863%

Fc1cc(Cl)c2nc(CN3CC4CC(C3)N4CC(F)C3CCCCC3)[nH]c2c1 (stereo not shown) [Compound 169]
% Inhibition (Single Point Data) [1]: 84.629% | IC50 [2]: 297 nM

Fc1ccc(Cl)c2nc(CN3CCN(CC(F)(F)C4CCCC4)CC3)[nH]c12 [Compound 163]
% Inhibition (Single Point Data) [1]: 54.884% | IC50 [2]: 671 nM

O=C(NCCN1C2CC1CN(Cc1nc3c(Cl)cc(F)cc3[nH]1)C2)C1(C(F)(F)F)CC1 [Compound 135]
% Inhibition (Single Point Data) [1]: 101.33% | IC50 [2]: 156 nM

CC1(CCN2C3CC2CN(Cc2nc4c(Cl)cc(F)cc4[nH]2)C3)CCOCC1 [Compound 105]
% Inhibition (Single Point Data) [1]: 73.309%

O=C(CN1C[C@@H]2C[C@H]1CN2CC(=O)NC1(C(F)(F)F)CC1)Nc1ccc(Cl)c(OC(F)F)c1 [Compound 358]
IC50 [2]: 172 nM

O=C(CN1CC2CC(C1)N2CC(=O)NC1(C(F)(F)F)CC1)Nc1cc(F)c(F)c(OC(F)F)c1 [Compound 361]
IC50 [2]: 127 nM

CC(C)(C)NC(=O)CN1C2CC1CN(CC(=O)Nc1ccc(F)c(Cl)c1)C2 [Compound 216]
% Inhibition (Single Point Data) [1]: 97.034%

Fc1cc(Cl)c2nc(CN3CC4CC(C3)N4CC(F)(F)C3CCCCC3)[nH]c2c1 [Compound 167]
% Inhibition (Single Point Data) [1]: 79.996% | IC50 [2]: 381 nM

CC(C)(C)NC(=O)CN1C2CC(CNC(=O)c3cc(F)cc(Cl)c3)CC1C2 (stereo not shown) [Compound 322]
% Inhibition (Single Point Data) [1]: 91.88% | IC50 [2]: 185 nM

COc1cc(Cl)cc(NC(=O)CN2CC3CC(C2)N3CC(=O)NC(C)(C)C)c1 [Compound 284]
% Inhibition (Single Point Data) [1]: 103.09%

OC1(CCN2C3CC2CN(Cc2nc4c(Cl)cc(F)cc4[nH]2)C3)CCCC1 [Compound 108]
% Inhibition (Single Point Data) [1]: 79.783% | IC50 [2]: 338 nM

CC(C)(C)NC(=O)CN1C2CCC1CN(CC(=O)NC13CC4CC(CC(C4)C1)C3)C2 [Compound 7]
% Inhibition (Single Point Data) [1]: 64.635% | IC50 [2]: 904 nM

Cn1nc(C2CC2)cc1NC(=O)CN1CC2CCC(C1)N2CC(=O)NC(C)(C)C [Compound 4]
% Inhibition (Single Point Data) [1]: 15.896%

Cc1ccc(NC(=O)CN2C[C@@H]3C[C@H]2CN3CC(=O)NC(C)(C)C)cc1Cl [Compound 362]
IC50 [2]: 371 nM

CC(C)(C)NC(=O)CN1C2CC1CN(CC(=O)Nc1cc(F)cc(C#N)c1)C2 [Compound 220]
% Inhibition (Single Point Data) [1]: 80.621% | IC50 [2]: 671 nM

O=C(CN1C2CC1CN(Cc1nc3c(Cl)cc(F)cc3[nH]1)C2)OC1CCCC1 [Compound 141]
% Inhibition (Single Point Data) [1]: 100.15% | IC50 [2]: 162 nM

O=C(CN1CC2CC1CN2CCNC(=O)C1(C(F)(F)F)CCC1)Nc1cc(F)cc(Cl)c1 (stereo not shown) [Compound 228]
% Inhibition (Single Point Data) [1]: 87.61% | IC50 [2]: 242 nM

CC(C)(C)NC(=O)CN1C[C@H]2C[C@@H]1CN2CC(=O)Nc1ccc(F)c(OC(F)F)c1 [Compound 246]
% Inhibition (Single Point Data) [1]: 49.246% | IC50 [2]: 1070 nM

CC1(C)CCN1C(=O)CN1C[C@@H]2C[C@H]1CN2CC(=O)NC12CC3CC(CC(C3)C1)C2 [Compound 328]
% Inhibition (Single Point Data) [1]: 48.833%

CC(C)(C)NC(=O)CN1C[C@@H]2C[C@H]1CN2CC(=O)NC12CCC(CC1)CC2 [Compound 287]
% Inhibition (Single Point Data) [1]: 72.068% | IC50 [2]: 682 nM

CC(C)(C)NC(=O)CN1C[C@@H]2C[C@H]1CN2CC(=O)NC12CC3CC(CC(F)(C3)C1)C2 [Compound 300]
% Inhibition (Single Point Data) [1]: 65.343% | IC50 [2]: 612 nM

CC(C)(C)NC(=O)CN1C[C@@H]2C[C@H]1CN2CC(=O)NC1CCCCC1 [Compound 289]
% Inhibition (Single Point Data) [1]: 36.292% | IC50 [2]: 5020 nM

CC(C)(C)NC(=O)CN1CCN(CC(=O)Nc2noc3ccccc23)CC1 [Compound 41]
% Inhibition (Single Point Data) [3]: 38.937% | IC50 [2]: 316 nM

N#CC1(CN2C3CC2CN(Cc2nc4c(Cl)ccc(F)c4[nH]2)C3)CCC(F)(F)CC1 [Compound 179]
% Inhibition (Single Point Data) [1]: 32.612% | IC50 [2]: 1970 nM

COC(=O)C(C)(C)N(C)C(=O)CN1C2CCC1CN(Cc1nc3c(Cl)cc(F)cc3[nH]1)C2 [Compound 85]
% Inhibition (Single Point Data) [1]: 66.404% | IC50 [2]: 375 nM

CC(C)(C)NC(=O)CN1C2CC1CN(CC(=O)NC13CCC(CC1)CC3)C2 [Compound 307]
% Inhibition (Single Point Data) [1]: 41.625% | IC50 [2]: 1010 nM

CC(C)(C)NC(=O)CN1C[C@H]2CC[C@@H]1CN2CC(=O)Nc1cc(F)cc(Cl)c1 [Compound 268]
% Inhibition (Single Point Data) [1]: 85.508% | IC50 [2]: 356 nM

O=C(CN1C2CCC1CN(Cc1nc3c(Cl)cc(F)cc3[nH]1)C2)N1CCOCC1 [Compound 83]
% Inhibition (Single Point Data) [1]: 84.836% | IC50 [2]: 441 nM

CCC(C)(C)NC(=O)CN1C2CCC1CN(Cc1nc3c(Cl)cc(F)cc3[nH]1)C2 [Compound 75]
% Inhibition (Single Point Data) [1]: 99.169%

O=C(CN1C[C@@H]2C[C@H]1CN2CC(=O)NC1(C(F)(F)F)CC1)Nc1ccc(F)c(Cl)c1 [Compound 25]
% Inhibition (Single Point Data) [1]: 66.125% | IC50 [2]: 457 nM

CC(C)(C)NC(=O)CN1C2CC1CN(CC(=O)Nc1cccc(C(F)F)c1)C2 [Compound 15]
% Inhibition (Single Point Data) [1]: 73.866% | IC50 [2]: 308 nM

CC(C)(NC(=O)CN1CC2CC1CN2Cc1nc2c(Cl)cc(F)cc2[nH]1)C(F)(F)F (stereo not shown) [Compound 125]
% Inhibition (Single Point Data) [1]: 95.552% | IC50 [2]: 156 nM

CC(C)(C)NC(=O)CN1C2CC1CN(Cc1nc3c(C#N)cc(F)cc3[nH]1)C2 [Compound 114]
IC50: < 78.2 nM | % Inhibition (Single Point Data) [1]: 95.181%

CC(C)(C)NC(=O)CN1C2CC1CN(C(=O)NCC13CC4CC(CC(C4)C1)C3)C2 [Compound 295]
% Inhibition (Single Point Data) [1]: 0.753%

Cc1cccc2[nH]c(CN3CC4CCC(C3)N4CC(=O)NC(C)(C)C)nc12 [Compound 194]
% Inhibition (Single Point Data) [1]: 97.438%

O=C(CN1C[C@@H]2C[C@H]1CN2CC(=O)N1CCC(F)(F)CC1)NC12CC3CC(CC(C3)C1)C2 [Compound 316]
% Inhibition (Single Point Data) [1]: 70.161% | IC50 [2]: 370 nM

CC(C)(C)NC(=O)CN1C[C@@H]2C[C@H]1CN2CC(=O)NC12CCC(CC1)C2 [Compound 288]
% Inhibition (Single Point Data) [1]: 23.299% | IC50 [2]: 1710 nM

CC1(C)CCN1C(=O)CN1C2CC1CN(Cc1nc3c(Cl)cc(F)cc3[nH]1)C2 [Compound 94]
% Inhibition (Single Point Data) [1]: 89.896% | IC50 [2]: 249 nM

CC(C)(C)C(O)CN1C[C@@H]2C[C@H]1CN2CC(=O)NC12CC3CC(CC(C3)C1)C2 (stereo partly shown) [Compound 297]
% Inhibition (Single Point Data) [1]: 63.628% | IC50 [2]: 703 nM

CC(C)(C)NC(=O)CN1C[C@@H]2C[C@H]1CN2CC(=O)NC12CC3CC(CC(O)(C3)C1)C2 [Compound 312]
% Inhibition (Single Point Data) [1]: 4.6566%

CC(C)(C)CCN1C2CCC1CN(Cc1nc3c(Cl)cc(F)cc3[nH]1)C2 [Compound 77]
% Inhibition (Single Point Data) [1]: 100.45%

CC(c1nc2c(Cl)cc(F)cc2[nH]1)N1CC2CCC(C1)N2CC(=O)NC(C)(C)C (stereo not shown) [Compound 201]
IC50: 84.2 nM | % Inhibition (Single Point Data) [1]: 95.763%

COc1cc(F)cc(NC(=O)CN2CC3CC(C2)N3CC(=O)NC(C)(C)C)c1 [Compound 211]
% Inhibition (Single Point Data) [1]: 81.284% | IC50 [2]: 233 nM

N#CC1(CN2C3CC2CN(Cc2nc4c(Cl)ccc(F)c4[nH]2)C3)CCCCC1 [Compound 178]
% Inhibition (Single Point Data) [1]: 43.012% | IC50 [2]: 1390 nM

O=C(CN1CC2CC1CN2CCNC(=O)C1(C(F)(F)F)CCC1)Nc1ccc(F)c(Cl)c1 (stereo not shown) [Compound 19]
% Inhibition (Single Point Data) [1]: 84.472% | IC50 [2]: 251 nM

Fc1cc(Cl)c2nc(CN3CC4CC(C3)N4CCC3(F)CCCC3)[nH]c2c1 [Compound 113]
% Inhibition (Single Point Data) [1]: 94.677%

CC(C)(C)NC(=O)CN1C2CCC1CN(CC(=O)Nc1cc(F)cc(Cl)c1)C2 [Compound 3]
% Inhibition (Single Point Data) [1]: 94.689% | IC50 [2]: 273 nM

CC(C)(C)NC(=O)CN1C[C@@H]2C[C@H]1CN2CC(=O)NC1CCCC(OC(F)F)C1 (stereo partly shown) [Compound 343]
% Inhibition (Single Point Data) [1]: 32.872% | IC50 [2]: 1930 nM

CC(C)(C)NC(=O)CN1CC2CC1CN2CC(=O)Nc1cccc(C(F)F)c1 (stereo not shown) [Compound 13]
% Inhibition (Single Point Data) [1]: 64.618% | IC50 [2]: 490 nM

CC(C)(C)NC(=O)CN1CCCN(CC(=O)Nc2cc(F)cc(Cl)c2)CC1 [Compound 34]
% Inhibition (Single Point Data) [3]: 51.943%

CC(C)(C)NC(=O)CN1C[C@@H]2C[C@H]1CN2CC(=O)Nc1cc(F)cc(Cl)c1 [Compound 58]
% Inhibition (Single Point Data) [1]: 91.889%

CC(C)(C)NC(=O)CN1CC2CC1CN2Cc1nc2c(Cl)cc(F)cc2[nH]1 (stereo not shown) [Compound 126]
% Inhibition (Single Point Data) [1]: 94.215%
